Laboratory results published in US20250340563A1, “FUSED PYRIDAZINE DERIVATIVES AS NLRP3 INHIBITORS” (Takeda Pharmaceutical Company Limited, priority 2022, published 2025).

Experiments:
NF-κB pathway = experiment: TNF-α assay in IFN-γ-differentiated, LPS-stimulated THP-1 cells (ELISA); type: cell-based; conditions: Homo sapiens, 50 ng/mL LPS, 3 hours
Method: Monocytic THP-1 cells (ATCC: TIB-202) are maintained in accordance with the provider's instructions in RPMI media (Life Technologies, Cat #A10491-01); RPMI is supplemented with 10% heat inactivated fetal bovine serum (Hyclone Cat #SH30396.03). The cells are differentiated into macrophages by the addition of 25 ng/mL IFN-γ for 24 hours at 37° C./5% CO2. Media is exchanged with fresh media with no FBS. The cells are plated at 40,000 cells per well in 384-well flat-bottom cell culture plates (Costar 3764) containing compounds (added in 1:1000) in a 1:3.16 serial dilution series in DMSO and are incubated for 30 minutes at 37° C./5% CO2. The NF-κB pathway is activated with the addition of 50 ng/mL LPS and the cells are incubated for 3 hours at 37° C./5% CO2. At the end of the incubation period, supernatant (40 μL) is removed, and […] are monitored using an ELISA (Human TNF-α ELISA, R&D systems, Cat #DY210) according to the manufacturer's instructions.
The IC50 values are calculated from a plot of percentage of inhibition versus the inhibitor concentration by a logistics curve fit according to: Y=[Bottom+(Top−Bottom)]/(1+10^[(Log IC50−X)·Hill Slope], where Y is the % inhibition at the inhibitor concentration, X, “Bottom” is the lowest inhibition value, i.e. 0%, “Top” is the maximum inhibition value, i.e. 100%, and the “Hill Slope” describes the slope of the sigmoidal curve between the “Bottom” and “Top” values. The curve fitting was conducted with internally developed software.

NLRP3 inflammasome = NLRP3 inflammasome (Homo sapiens, UniProt Q96P20); experiment: IL-1β assay in IFN-γ-differentiated, LPS-primed, ATP-activated THP-1 cells (ELISA); type: cell-based; conditions: 50 ng/mL LPS priming, 2.5 mM ATP activation, 2 hours
Summary of the method: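 Supernatant IL-1β is quantified by ELISA after 2 h of 2.5 mM ATP stimulation at 37 °C, with IC50 taken from a four-parameter fit of % inhibition. Before this, THP-1 macrophages (25 ng/mL IFN-γ, 24 h) were LPS-primed (50 ng/mL, 24 h, no FBS) and exposed to serially diluted compound for 30 min.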

NLRP3 inflammasome, sequence (Q96P20 whole entry): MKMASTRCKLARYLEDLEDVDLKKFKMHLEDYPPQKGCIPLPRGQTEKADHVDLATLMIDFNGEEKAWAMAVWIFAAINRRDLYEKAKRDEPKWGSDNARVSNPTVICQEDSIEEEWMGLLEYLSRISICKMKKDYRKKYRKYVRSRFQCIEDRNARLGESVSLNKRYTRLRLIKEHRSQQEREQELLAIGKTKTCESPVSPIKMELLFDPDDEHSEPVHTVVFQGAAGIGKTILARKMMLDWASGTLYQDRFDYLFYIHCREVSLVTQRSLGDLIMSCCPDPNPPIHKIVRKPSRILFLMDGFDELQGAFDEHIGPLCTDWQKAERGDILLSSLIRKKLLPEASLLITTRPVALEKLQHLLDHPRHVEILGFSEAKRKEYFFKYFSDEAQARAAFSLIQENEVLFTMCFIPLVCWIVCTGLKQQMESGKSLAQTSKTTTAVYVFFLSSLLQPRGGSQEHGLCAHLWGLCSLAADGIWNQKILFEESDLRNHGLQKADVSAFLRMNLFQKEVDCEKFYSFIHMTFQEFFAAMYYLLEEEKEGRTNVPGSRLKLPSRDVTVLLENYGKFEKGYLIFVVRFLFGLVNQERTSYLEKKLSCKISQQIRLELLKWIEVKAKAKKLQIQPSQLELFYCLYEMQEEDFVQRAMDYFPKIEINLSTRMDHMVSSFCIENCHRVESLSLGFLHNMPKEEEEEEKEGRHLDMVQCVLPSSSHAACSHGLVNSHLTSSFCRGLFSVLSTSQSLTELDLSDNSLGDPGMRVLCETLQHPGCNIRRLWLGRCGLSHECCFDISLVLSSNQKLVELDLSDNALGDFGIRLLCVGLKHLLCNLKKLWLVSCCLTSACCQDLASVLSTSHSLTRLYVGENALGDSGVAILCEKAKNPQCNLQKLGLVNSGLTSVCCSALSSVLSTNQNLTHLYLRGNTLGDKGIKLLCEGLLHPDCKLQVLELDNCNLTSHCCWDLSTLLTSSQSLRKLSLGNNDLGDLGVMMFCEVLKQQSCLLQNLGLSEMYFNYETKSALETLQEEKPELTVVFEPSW

In the case of `CN1C[C@H](F)C[C@@H](Nc2nnc(-c3ccccc3O)c3ccncc23)C1` (relative stereo) [Example 172, 2-(4-((trans-5-fluoro-1-methylpiperidin-3-yl)amino)pyrido[3,4-d]pyridazin-1-yl)phenol], the IC50 (NF-κB pathway) is reported as greater than 30 µM and the IC50 (NLRP3 inflammasome) is reported as 20 nM.

`Cc1ccc(-c2nnc(N[C@@H]3C[C@@H](F)CN(C)C3)c3cnccc23)c(O)c1` (relative stereo) [Example 173, 2-(4-((trans-5-fluoro-1-methylpiperidin-3-yl)amino)pyrido[3,4-d]pyridazin-1-yl)-5-methylphenol] showed an IC50 (NF-κB pathway) greater than 30 µM and an IC50 (NLRP3 inflammasome) of 3 nM.

For `COc1ccc(-c2nnc(Nc3cccc(O)c3)c3ccccc23)cc1` [Example 1, 3-((4-(4-methoxyphenyl)phthalazin-1-yl)amino)phenol], the IC50 (NF-κB pathway) was 7.2 µM and the IC50 (NLRP3 inflammasome) was 1880 nM.

In the case of `CN1CCCC(Nc2nnc(-c3ccc(C4CC4)cc3)c3ccccc23)C1` (stereo not drawn) [Example 16, 4-(4-cyclopropylphenyl)-N-(1-methylpiperidin-3-yl)phthalazin-1-amine], the IC50 (NF-κB pathway) is reported as greater than 30 µM and the IC50 (NLRP3 inflammasome) is reported as 112 nM.

`Oc1cccc(Nc2nnc(-c3ccc(C4CC4)cc3)c3ccccc23)c1` [Example 19, 3-((4-(4-cyclopropylphenyl)phthalazin-1-yl)amino)phenol] gave an IC50 (NF-κB pathway) of 7.76 µM and an IC50 (NLRP3 inflammasome) of 1090 nM.

With `CN1CCCC(Nc2nnc(-c3ccc(C(F)F)cc3)c3ccccc23)C1` (stereo not drawn) [Example 21, 4-(4-(difluoromethyl)phenyl)-N-(1-methylpiperidin-3-yl)phthalazin-1-amine] the IC50 (NF-κB pathway) was greater than 30 µM and the IC50 (NLRP3 inflammasome) was 75 nM.

`CN1CCC[C@@H](Nc2nnc(-c3ccccc3O)c3ccncc23)C1` [Example 28, (R)-2-(4-((1-methylpiperidin-3-yl)amino)pyrido[3,4-d]pyridazin-1-yl)phenol] gave an IC50 (NF-κB pathway) greater than 30 µM and an IC50 (NLRP3 inflammasome) of 8 nM.

`Cc1ccc(-c2nnc(N[C@@H]3CCCN(C)C3)c3cnccc23)cc1` [Example 30, (R)—N-(1-methylpiperidin-3-yl)-1-(p-tolyl)pyrido[3,4-d]pyridazin-4-amine] showed an IC50 (NF-κB pathway) greater than 30 µM and an IC50 (NLRP3 inflammasome) of 97 nM.

With `COc1ccc(-c2nnc(N[C@@H]3CCCN(C)C3)c3cnccc23)cc1` [Example 35, (R)-1-(4-methoxyphenyl)-N-(1-methylpiperidin-3-yl)pyrido[3,4-d]pyridazin-4-amine] the IC50 (NF-κB pathway) was greater than 30 µM and the IC50 (NLRP3 inflammasome) was 88 nM.

`COc1ccc(-c2nnc(N[C@@H]3CCCN(C)C3)c3cnccc23)c(O)c1` [Example 36, (R)-5-methoxy-2-(4-((1-methylpiperidin-3-yl)amino)pyrido[3,4-d]pyridazin-1-yl)phenol] gave an IC50 (NF-κB pathway) greater than 30 µM and an IC50 (NLRP3 inflammasome) of 10 nM.

For `COc1ccc(-c2nnc(Nc3ccccc3O)c3ccccc23)cc1` [Example 39, 2-((4-(4-methoxyphenyl)phthalazin-1-yl)amino)phenol], the IC50 (NF-κB pathway) was greater than 30 µM and the IC50 (NLRP3 inflammasome) was 1620 nM.

Compound `COc1ccc(-c2nnc(Nc3cccc(O)c3)c3cnccc23)cc1` [Example 40, 3-((1-(4-methoxyphenyl)pyrido[3,4-d]pyridazin-4-yl)amino)phenol] has an IC50 (NF-κB pathway) greater than 30 µM and an IC50 (NLRP3 inflammasome) of 3020 nM.

`COc1ccc(-c2nnc(Nc3cccc(O)c3)c3ccncc23)cc1` [Example 41, 3-((4-(4-methoxyphenyl)pyrido[3,4-d]pyridazin-1-yl)amino)phenol] was tested, and the IC50 (NF-κB pathway) was greater than 30 µM and the IC50 (NLRP3 inflammasome) was 394 nM.

Compound `CN1CCCC(Nc2nnc(-c3ccc(Cl)cc3F)c3ccccc23)C1` (stereo not drawn) [Example 43, 4-(4-chloro-2-fluorophenyl)-N-(1-methylpiperidin-3-yl)phthalazin-1-amine] has an IC50 (NF-κB pathway) greater than 30 µM and an IC50 (NLRP3 inflammasome) of 41 nM.

Work on `CN1CCCC(Nc2nnc(-c3ccc(Cl)c(F)c3)c3ccccc23)C1` (stereo not drawn) [Example 44, 4-(4-chloro-3-fluorophenyl)-N-(1-methylpiperidin-3-yl)phthalazin-1-amine] yielded an IC50 (NF-κB pathway) greater than 30 µM and an IC50 (NLRP3 inflammasome) of 97 nM.

With `Cc1cc(Cl)ccc1-c1nnc(NC2CCCN(C)C2)c2ccccc12` (stereo not drawn) [Example 46, 4-(4-chloro-2-methylphenyl)-N-(1-methylpiperidin-3-yl)phthalazin-1-amine] the IC50 (NF-κB pathway) was greater than 30 µM and the IC50 (NLRP3 inflammasome) was 113 nM.

Compound `COc1ccc(-c2nnc(N[C@@H]3CCCN(C)C3)c3c(C)cccc23)cc1` [Example 56, (R)-4-(4-methoxyphenyl)-8-methyl-N-(1-methylpiperidin-3-yl)phthalazin-1-amine] has an IC50 (NF-κB pathway) greater than 30 µM and an IC50 (NLRP3 inflammasome) of 72 nM.

`COc1ccc(-c2nnc(N[C@@H]3CCCN(CCF)C3)c3ccccc23)cc1` [Example 58, (R)—N-(1-(2-fluoroethyl)piperidin-3-yl)-4-(4-methoxyphenyl)phthalazin-1-amine] was tested, and the IC50 (NF-κB pathway) was greater than 30 µM and the IC50 (NLRP3 inflammasome) was 66 nM.

`Oc1cc(Cl)ccc1-c1nnc(N[C@@H]2CCCN(CCF)C2)c2ccccc12` [Example 59, (R)-5-chloro-2-(4-((1-(2-fluoroethyl)piperidin-3-yl)amino)phthalazin-1-yl)phenol] showed an IC50 (NF-κB pathway) greater than 30 µM and an IC50 (NLRP3 inflammasome) of 2 nM.

In the case of `Oc1ccccc1-c1nnc(N[C@@H]2CCCN(CCF)C2)c2ccccc12` [Example 60, (R)-2-(4-((1-(2-fluoroethyl)piperidin-3-yl)amino)phthalazin-1-yl)phenol], the IC50 (NF-κB pathway) is reported as 21.4 µM and the IC50 (NLRP3 inflammasome) is reported as 27 nM.

Work on `COc1cc(F)ccc1-c1nnc(N[C@@H]2C[C@@H](F)CN(C)C2)c2cnccc12` [Example 181, N-((3R,5R)-5-fluoro-1-methylpiperidin-3-yl)-1-(4-fluoro-2-methoxyphenyl)pyrido[3,4-d]pyridazin-4-amine] yielded an IC50 (NLRP3 inflammasome) of 1000 nM.

For `COc1cc(F)ccc1-c1nnc(N[C@@H]2C[C@@H](F)CN(C)C2)c2ccncc12` [Example 182, N-((3R,5R)-5-fluoro-1-methylpiperidin-3-yl)-4-(4-fluoro-2-methoxyphenyl)pyrido[3,4-d]pyridazin-1-amine], the IC50 (NLRP3 inflammasome) was 3470 nM.

With `CN1C[C@H](F)C[C@@H](Nc2nnc(-c3ccc(Cl)cc3F)c3cnccc23)C1` [Example 183, 4-(4-chloro-2-fluorophenyl)-N-((3R,5R)-5-fluoro-1-methylpiperidin-3-yl)pyrido[3,4-d]pyridazin-1-amine] the IC50 (NLRP3 inflammasome) was 589 nM.

For `F[C@H]1CNC[C@H](Nc2nnc(-c3ccc(Cl)cc3)c3cnccc23)C1` [Example 187, 4-(4-chlorophenyl)-N-((3R,5R)-5-fluoropiperidin-3-yl)pyrido[3,4-d]pyridazin-1-amine], the IC50 (NLRP3 inflammasome) was 3090 nM.

For `F[C@H]1CNC[C@H](Nc2nnc(-c3ccc(Cl)cc3)c3ccncc23)C1` [Example 188, 1-(4-chlorophenyl)-N-((3R,5R)-5-fluoropiperidin-3-yl)pyrido[3,4-d]pyridazin-4-amine], the IC50 (NLRP3 inflammasome) was 692 nM.

`FC1(F)CNCC(Nc2nnc(-c3ccc(Cl)cc3)c3ccccc23)C1` (stereo not drawn) [Example 191, 4-(4-chlorophenyl)-N-(5,5-difluoropiperidin-3-yl)phthalazin-1-amine] gave an IC50 (NLRP3 inflammasome) of 1290 nM.

`COC1CC(N2CCCC(Nc3nnc(-c4ccc(Cl)cc4)c4ccncc34)C2)C1` (stereo not drawn) [Example 197, 1-(4-chlorophenyl)-N-(1-(3-methoxycyclobutyl)piperidin-3-yl)pyrido[3,4-d]pyridazin-4-amine] was tested, and the IC50 (NLRP3 inflammasome) was 708 nM.

Work on `COc1ccc(-c2nnc(Nc3cccc(O)c3)c3ncccc23)cc1` [Example 198, 3-((5-(4-methoxyphenyl)pyrido[2,3-d]pyridazin-8-yl)amino)phenol] yielded an IC50 (NLRP3 inflammasome) of 4380 nM.

Work on `COc1ccc(-c2nnc(Nc3cccc(O)c3)c3c2CCCC3)cc1` [Example 199, 3-((4-(4-methoxyphenyl)-5,6,7,8-tetrahydrophthalazin-1-yl)amino)phenol] yielded an IC50 (NLRP3 inflammasome) of 2750 nM.

`CN1C[C@H](F)C[C@@H](Nc2nnc(-c3ccccc3O)c3c2CCOC3)C1` [Example 202, 2-(1-(((3R,5R)-5-fluoro-1-methylpiperidin-3-yl)amino)-7,8-dihydro-5H-pyrano[3,4-d]pyridazin-4-yl)phenol] showed an IC50 (NLRP3 inflammasome) of 210 nM.

`COc1ccc(-c2nnc(N[C@@H]3CCCN(C)C3)c3c2COCC3)cc1` [Example 223, (R)-4-(4-methoxyphenyl)-N-(1-methylpiperidin-3-yl)-7,8-dihydro-5H-pyrano[3,4-d]pyridazin-1-amine] was tested, and the IC50 (NLRP3 inflammasome) was 457 nM.

With `CN1CCC[C@@H](Nc2nnc(-c3ccccc3O)c3c2CCOC3)C1` [Example 227, (R)-2-(1-((1-methylpiperidin-3-yl)amino)-7,8-dihydro-5H-pyrano[3,4-d]pyridazin-4-yl)phenol] the IC50 (NLRP3 inflammasome) was 21 nM.

Compound `COc1ccc(-c2nnc(N[C@@H]3CCCN(C4CC4)C3)c3c2CCOC3)cc1` [Example 228, (R)—N-(1-cyclopropylpiperidin-3-yl)-1-(4-methoxyphenyl)-7,8-dihydro-5H-pyrano[3,4-d]pyridazin-4-amine] has an IC50 (NLRP3 inflammasome) of 23 nM.

Work on `Cc1ccc(-c2nnc(NC34CCC(O)(CC3)C4)c3c2CCOC3)c(O)c1` [Example 231, 4-((1-(2-hydroxy-4-methylphenyl)-7,8-dihydro-5H-pyrano[3,4-d]pyridazin-4-yl)amino)bicyclo[2.2.1]heptan-1-ol] yielded an IC50 (NLRP3 inflammasome) of 195 nM.
